The source of these data is patent US9051273B2, “Phosphodiesterase 4 inhibitor capable of avoiding vomiting” (priority 2012, dated 2015).

What is called IC50 is the concentration that gives 50% inhibition. The low end stands for greater potency, the high end for weaker potency.

The target in one series is PDE4D4 (Homo sapiens, UniProt Q08499). As to the kind of experiment: Phosphodiesterase 4 inhibitory activity test (IMAP fluorescence polarization), PDE4D4. It is filed as biochemical. The note with it: Table 1.
PDE4D4, sequence (Q08499 whole entry): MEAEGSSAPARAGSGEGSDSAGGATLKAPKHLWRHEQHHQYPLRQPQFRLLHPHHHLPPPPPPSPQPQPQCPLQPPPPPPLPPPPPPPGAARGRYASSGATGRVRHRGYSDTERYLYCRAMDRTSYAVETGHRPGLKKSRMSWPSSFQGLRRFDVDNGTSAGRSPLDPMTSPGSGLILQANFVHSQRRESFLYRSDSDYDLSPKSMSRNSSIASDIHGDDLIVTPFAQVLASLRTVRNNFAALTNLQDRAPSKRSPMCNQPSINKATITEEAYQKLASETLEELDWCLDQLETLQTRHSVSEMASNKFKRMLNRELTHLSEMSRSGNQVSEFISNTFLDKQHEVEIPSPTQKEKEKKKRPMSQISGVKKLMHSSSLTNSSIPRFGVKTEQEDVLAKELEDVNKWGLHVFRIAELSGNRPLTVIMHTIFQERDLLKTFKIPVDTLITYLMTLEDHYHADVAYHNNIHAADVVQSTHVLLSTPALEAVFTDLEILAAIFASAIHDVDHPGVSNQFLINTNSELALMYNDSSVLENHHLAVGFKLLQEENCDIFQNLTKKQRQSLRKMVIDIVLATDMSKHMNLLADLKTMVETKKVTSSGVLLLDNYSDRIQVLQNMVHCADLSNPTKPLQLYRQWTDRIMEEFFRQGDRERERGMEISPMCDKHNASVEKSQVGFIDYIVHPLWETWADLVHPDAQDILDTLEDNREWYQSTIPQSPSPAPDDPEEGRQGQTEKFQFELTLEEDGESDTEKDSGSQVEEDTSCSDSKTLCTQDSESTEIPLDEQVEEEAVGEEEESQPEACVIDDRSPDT
A further series concerns beagle dogs. The series is described as follows: Potential vomiting effects (emesis) in beagle dogs. It is filed as in vivo. The note with it: observation 120 minutes. As for the experimental part: 2. Preliminary assessing the potential vomiting effects of new PDE4 inhibitor III-3
The potential vomiting observation time is 120 minutes after the oral administration. The latency was determined by the interval time from the oral administration of the drugs to the nausea, retching, a lot of salivation and vomiting of gastric contents. The incidence of emesis was also recorded.

For series [1], the system named is mice with scopolamine-induced cognitive deficits. As to the kind of experiment: Morris water maze, learning and memory with scopolamine-induced cognitive deficits in mice. Format: in vivo, kunming mice. The note with it: administered 1 week, space exploration on fifth day, X ± S. As for the experimental part:
1. The effects of the new PDE4 inhibitor III-3 on the learning and memory with scopolamine-induced cognitive deficits in mice
After being continuously administered with veh or compounds for 1 week, the behavioral tests are determined by Morris water maze. 20 minutes before test, saline is given into the blank control mice through intraperitoneal injection, while scopolamine is intraperitoneally injected to the other five groups. These mice are continuously trained for 4 days, and the space exploration experiment is performed on the fifth day for recording the latency to target quadrant, the number of crossing and retention time in the target quadrant during the test period of each mice.

Another series addresses PDE4D5 (Homo sapiens, UniProt Q08499). The series is described as follows: Phosphodiesterase 4 inhibitory activity test (IMAP fluorescence polarization), PDE4D5. The note with it: Table 1. Format: biochemical. In general terms: Polarisation of emitted light reports the rotation of a fluorescent probe.
Where [2] appears, read: scopolamine + Rolipram 0.5 mg/kg.

PDE4D5, sequence (Q08499 1-745 isoform Q08499-6): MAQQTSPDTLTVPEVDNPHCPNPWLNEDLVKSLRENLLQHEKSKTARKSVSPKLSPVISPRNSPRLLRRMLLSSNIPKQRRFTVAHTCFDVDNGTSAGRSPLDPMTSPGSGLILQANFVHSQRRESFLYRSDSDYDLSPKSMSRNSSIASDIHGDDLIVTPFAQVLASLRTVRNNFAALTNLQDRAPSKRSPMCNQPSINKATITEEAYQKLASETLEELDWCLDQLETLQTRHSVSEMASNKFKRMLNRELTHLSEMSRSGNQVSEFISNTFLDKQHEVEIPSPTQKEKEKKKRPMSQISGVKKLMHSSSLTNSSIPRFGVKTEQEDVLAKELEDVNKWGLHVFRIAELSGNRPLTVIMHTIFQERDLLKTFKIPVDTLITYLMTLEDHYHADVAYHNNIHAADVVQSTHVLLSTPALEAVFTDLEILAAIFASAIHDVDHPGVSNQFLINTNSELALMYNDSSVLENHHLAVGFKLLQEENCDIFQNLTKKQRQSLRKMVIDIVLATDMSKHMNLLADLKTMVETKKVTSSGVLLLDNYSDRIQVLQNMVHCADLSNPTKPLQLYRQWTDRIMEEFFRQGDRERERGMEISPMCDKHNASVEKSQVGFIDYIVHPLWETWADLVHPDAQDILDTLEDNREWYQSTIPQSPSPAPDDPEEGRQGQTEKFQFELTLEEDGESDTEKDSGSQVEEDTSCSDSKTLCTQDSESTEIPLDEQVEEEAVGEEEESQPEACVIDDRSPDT
Source text for PDE4D4: (§1) Phosphodiesterase 4 inhibitory activity test utilizes IMAP technology, which is called immobilized metal ion affinity-based fluorescence polarization and provide a stable and accurate approach for determining the inhibitory potential of compounds.
Source text for PDE4D5: as §1

Regarding `COc1ccccc1OCCNc1ccc(=O)n(Cc2ccc(OC)c(-c3cccc(Cl)c3)c2)n1` [III-3], on PDE4D4, half-maximal inhibition (IC50) was put at 7.82 µM. In the series with beagle dogs (1.0 mg/kg oral), the Incidence of emesis is 0/3 and the “Latency period (min) of emesis” value was >120 min. In series [1] (scopolamine + III-3 0.2 mg/kg), the “Latency to target quadrant (t/s)” value is listed as 9.96 ± 2.32 s, the “Retention time in target quadrant time (t/s)” value was 42.78 ± 4.56 s and the “The number of crossing target quadrant” value is given as 6.67 ± 1.29. The IC50 against PDE4D5 is 8.48 µM.

Take `COc1ccc(CN2CCN(c3ccccc3OC)CC2)cc1-c1cccc(Cl)c1` [II-1]: the IC50 on PDE4D4 amounted to 115 µM; at PDE4D5 it was 83.7 µM.

As for `COc1ccc(Cn2ncc(Cl)c(Cl)c2=O)cc1-c1cccc(Cl)c1` [III-1], the results for the IC50 on PDE4D4 and on PDE4D5 were 22.4 µM and 8.32 µM, respectively.

For the compound `COc1ccc(CN2CCN(c3ccccc3Cl)CC2)cc1-c1cccc(Cl)c1` [II-2], the IC50 at PDE4D4 was 141 µM; on PDE4D5, 50.9 µM.

On to `COc1ccc(C2CNC(=O)C2)cc1OC1CCCC1` (centres unmarked) [Rolipram, reference compound], for which, in the series on beagle dogs (0.5 mg/kg oral gavage), the Incidence of emesis is listed as 6/6 and the “Latency period (min) of emesis” value came to 10.67 ± 2.68 min. In addition, in series [1] (setting [2]), the “Latency to target quadrant (t/s)” value was determined as 16.09 ± 3.29 s, the “Retention time in target quadrant time (t/s)” value came to 38.34 ± 3.65 s and the “The number of crossing target quadrant” value worked out at 6.89 ± 0.59.

For `COc1ccc(Cn2nc(N3CCN(c4ccccc4Cl)CC3)ccc2=O)cc1-c1cccc(Cl)c1` [III-2], the results for the IC50 against PDE4D4 and on PDE4D5 were 137 µM and 110 µM, respectively.
